Data published in patent US10906899B2, “Bicyclic fused pyrazole derivatives for the treatment of RSV” (GEORGIA STATE UNIVERSITY RESEARCH FOUNDATION, INC., priority 2016, dated 2021).

tested on: RSV; assay: Dose-response counterscreen: luciferase reporter virus infection of BEAS-2B cells (EC50); format: cell-based, respiratory syncytial virus (RSV); conditions: human respiratory syncytial virus, A series compounds, anti-RSV potency, read-out: Potency Range (EC50 values)

Compound	EC50 [µM]
COc1cc(C2CC(=O)Nc3[nH]ncc32)ccc1OC1CCCC1 (centres unmarked) [AVG-179]	> 20
COc1cc(C2CC(=O)Nc3c2cnn3-c2ccccn2)ccc1OC1CCCC1 (centres unmarked) [AVG-180]	10 to 20
COc1cc(C2CC(=O)Nc3nn(-c4ccccn4)cc32)ccc1OC1CCCC1 (centres unmarked) [AVG-180b]	10 to 20
COc1ccc(Cn2ncc3c2NC(=O)CC3c2ccc(OC3CCCC3)c(OC)c2)c(OC)c1 (centres unmarked) [AVG-181]	1 to 10

same assay, conditions: human respiratory syncytial virus, B series compounds, read-out: Potency Range (EC50 values)

Compound	EC50 [µM]
Cc1c2c(=O)n(-c3nc4ccccc4s3)n(Cc3cocn3)c2cc(=O)n1Cc1ccco1 [AVG-125]	> 20
Cc1c2c(=O)n(-c3nc4ccccc4s3)n(Cc3cnco3)c2cc(=O)n1Cc1ccco1 [AVG-126]	1 to 10
Cc1c2c(=O)n(-c3ccccn3)n(Cc3ccccc3)c2cc(=O)n1Cc1ccccc1Cl [AVG-127]	0.1 to 1
Cc1c2c(=O)n(-c3ccccn3)n(Cc3ccccc3)c2cc(=O)n1Cc1cccc(Cl)c1 [AVG-128]	0.1 to 1
Cc1c2c(=O)n(-c3ccccn3)n(Cc3ccccc3)c2cc(=O)n1Cc1ccc(F)cc1 [AVG-129]	0.1 to 1
Cc1c2c(=O)n(-c3ccccn3)n(Cc3ccccc3)c2cc(=O)n1Cc1ccccc1F [AVG-130]	0.1 to 1
Cc1c2c(=O)n(-c3ccccn3)n(Cc3ccccc3)c2cc(=O)n1Cc1cccc(F)c1 [AVG-131]	0.1 to 1
COc1ccc(Cn2c(C)c3c(=O)n(-c4ccccn4)n(Cc4ccccc4)c3cc2=O)cc1 [AVG-132]	1 to 10
COc1ccccc1Cn1c(C)c2c(=O)n(-c3ccccn3)n(Cc3ccccc3)c2cc1=O [AVG-133]	0.1 to 1
COc1cccc(Cn2c(C)c3c(=O)n(-c4ccccn4)n(Cc4ccccc4)c3cc2=O)c1 [AVG-134]	0.1 to 1
Cc1c2c(=O)n(-c3nc4ccccc4s3)n(C(C)c3ccccc3)c2cc(=O)n1Cc1ccccn1 (centres unmarked) [AVG-135]	10 to 20
Cc1cccc(Cn2c(C)c3c(=O)n(-c4nc5ccccc5s4)n(Cc4ccccc4)c3cc2=O)n1 [AVG-157]	0.1 to 1
COc1cccc(Cn2c(C)c3c(=O)n(-c4nc5ccccc5s4)n(Cc4ccccc4)c3cc2=O)n1 [AVG-158]	0.1 to 1
Cc1c2c(=O)n(-c3nc4ccccc4s3)n(Cc3ccccc3)c2cc(=O)n1Cc1cccc(C(C)C)n1 [AVG-159]	0.01 to 0.1
Cc1c2c(=O)n(-c3nc4ccccc4s3)n(Cc3ccccc3)c2cc(=O)n1Cc1cc(Cl)ccn1 [AVG-160]	1 to 10
Cc1c2c(=O)n(-c3nc4ccccc4s3)n(Cc3ccccc3)c2cc(=O)n1Cc1ncccc1Cl [AVG-161]	1 to 10
Cc1c2c(=O)n(-c3nc4ccccc4s3)n(Cc3ccccc3)c2cc(=O)n1Cc1cncc(Cl)n1 [AVG-162]	10 to 20
Cc1c2c(=O)n(-c3nc4ccccc4s3)n(Cc3ccccc3)c2cc(=O)n1Cc1cnc(Cl)cn1 [AVG-163]	1 to 10
Cc1c2c(=O)n(-c3nc4ccccc4s3)n(Cc3ccccc3)c2cc(=O)n1Cc1nccnc1Cl [AVG-164]	> 20
CCc1c2c(=O)n(-c3nc4ccccc4s3)n(Cc3ccccc3)c2cc(=O)n1Cc1cccc(Cl)n1 [AVG-165]	1 to 10
CC(C)c1c2c(=O)n(-c3nc4ccccc4s3)n(Cc3ccccc3)c2cc(=O)n1Cc1cccc(Cl)n1 [AVG-166]	1 to 10
Cc1c2c(=O)n(-c3nc4ccccc4s3)n(Cc3ccccc3)c2cc(=O)n1Cc1ccc(Cl)c(Cl)n1 [AVG-168]	0.1 to 1
Cc1c2c(=O)n(-c3nc4ccccc4s3)n(Cc3ccccc3)c2cc(=O)n1Cc1cc(Cl)cc(Cl)n1 [AVG-169]	0.1 to 1
Cc1c2c(=O)n(-c3nc4ccccc4s3)n(Cc3ccccc3)c2cc(=O)n1C(C)c1cccc(Cl)n1 (centres unmarked) [AVG-170]	1 to 10
Cc1c2c(=O)n(-c3ccccn3)n(Cc3ccccc3)c2cc(=O)n1Cc1cccc(Cl)n1 [AVG-171]	0.01 to 0.1
Cc1c2c(=O)n(-c3ccccn3)n(Cc3ccccc3)c2cc(=O)n1Cc1ccc(Cl)c(Cl)n1 [AVG-172]	0.1 to 1

Compound	EC50 [µM]
Cc1c2c(=O)n(-c3nc4ccccc4s3)n(Cc3ccc(Cl)cc3)c2cc(=O)n1Cc1cccc(Cl)n1 [AVG-173]	0.1 to 1
Cc1c2c(=O)n(-c3nc4ccccc4s3)n(Cc3cccc(Cl)c3)c2cc(=O)n1Cc1cccc(Cl)n1 [AVG-174]	1 to 10
Cc1c2c(=O)n(-c3nc4ccccc4s3)n(Cc3ccccc3Cl)c2cc(=O)n1Cc1cccc(Cl)n1 [AVG-175]	1 to 10
COc1ccccc1Cn1c2cc(=O)n(Cc3cccc(Cl)n3)c(C)c2c(=O)n1-c1nc2ccccc2s1 [AVG-176]	0.1 to 1
COc1cccc(Cn2c3cc(=O)n(Cc4cccc(Cl)n4)c(C)c3c(=O)n2-c2nc3ccccc3s2)c1 [AVG-177]	0.1 to 1
COc1ccc(Cn2c3cc(=O)n(Cc4cccc(Cl)n4)c(C)c3c(=O)n2-c2nc3ccccc3s2)cc1 [AVG-178]	0.01 to 0.1
Cc1c2c(=O)n(-c3nc4c(Cl)cccc4s3)n(Cc3ccccc3)c2cc(=O)n1Cc1cccc(Cl)n1 [AVG-183]	0.01 to 0.1
Cc1c2c(=O)n(-c3nc4cc(Cl)ccc4s3)n(Cc3ccccc3)c2cc(=O)n1Cc1cccc(Cl)n1 [AVG-184]	1 to 10
Cc1c2c(=O)n(-c3nc4ccc(Cl)cc4s3)n(Cc3ccccc3)c2cc(=O)n1Cc1cccc(Cl)n1 [AVG-185]	0.1 to 1
COc1cccc2sc(-n3c(=O)c4c(C)n(Cc5cccc(Cl)n5)c(=O)cc4n3Cc3ccccc3)nc12 [AVG-187]	0.1 to 1
COc1ccc2sc(-n3c(=O)c4c(C)n(Cc5cccc(Cl)n5)c(=O)cc4n3Cc3ccccc3)nc2c1 [AVG-188]	0.1 to 1
COc1ccc2nc(-n3c(=O)c4c(C)n(Cc5cccc(Cl)n5)c(=O)cc4n3Cc3ccccc3)sc2c1 [AVG-189]	0.01 to 0.1
Cc1cccc2sc(-n3c(=O)c4c(C)n(Cc5cccc(Cl)n5)c(=O)cc4n3Cc3ccccc3)nc12 [AVG-191]	0.1 to 1
Cc1ccc2sc(-n3c(=O)c4c(C)n(Cc5cccc(Cl)n5)c(=O)cc4n3Cc3ccccc3)nc2c1 [AVG-192]	0.1 to 1
Cc1ccc2nc(-n3c(=O)c4c(C)n(Cc5cccc(Cl)n5)c(=O)cc4n3Cc3ccccc3)sc2c1 [AVG-193]	0.1 to 1
Cc1cccc2nc(-n3c(=O)c4c(C)n(Cc5cccc(Cl)n5)c(=O)cc4n3Cc3ccccc3)sc12 [AVG-194]	0.1 to 1
Cc1c2c(=O)n(-c3nc4ncccc4s3)n(Cc3ccccc3)c2cc(=O)n1Cc1cccc(Cl)n1 [AVG-195]	0.01 to 0.1
Cc1c2c(=O)n(-c3nc4cnccc4s3)n(Cc3ccccc3)c2cc(=O)n1Cc1cccc(Cl)n1 [AVG-196]	10 to 20
Cc1c2c(=O)n(-c3nc4ccncc4s3)n(Cc3ccccc3)c2cc(=O)n1Cc1cccc(Cl)n1 [AVG-197]	0.01 to 0.1
Cc1c2c(=O)n(-c3nc4cccnc4s3)n(Cc3ccccc3)c2cc(=O)n1Cc1cccc(Cl)n1 [AVG-198]	0.1 to 1
COc1ccc(Cn2c(=O)c3c(C)n(Cc4ccccn4)c(=O)cc3n2Cc2ccccc2)cc1 [AVG-199]	10 to 20
Cc1c2c(=O)[nH]n(Cc3ccccc3)c2cc(=O)n1Cc1ccccn1 [AVG-200]	> 20
Cc1c2c(=O)n(-c3nc4ccccc4s3)n(Cc3ccccc3)c2cc(=O)n1Cc1cccc(C(F)(F)F)n1 [AVG-201]	0.1 to 1
COc1cccc(Cn2c(C)c3c(=O)n(-c4ccccn4)n(Cc4ccccc4)c3cc2=O)n1 [AVG-203]	0.01 to 0.1
CCOc1cccc(Cn2c(C)c3c(=O)n(-c4nc5ccccc5s4)n(Cc4ccccc4)c3cc2=O)n1 [AVG-204]	0.1 to 1
Cc1c2c(=O)n(-c3nc4ccccc4s3)n(Cc3ccccc3)c2cc(=O)n1Cc1cccc(OC(C)C)n1 [AVG-205]	0.1 to 1
